Values joined by “and” are separate entries in the source; they are usually repeats but may differ in a detail not shown here. Equal entries are not always repeated. Structures can show the parent of a compound that is named as a salt. Where two headings read alike, the source gives them in different places.
Tests used:
[1] = cited from earlier work
[2] = Powder stability with accelerated environmental aging, particle size by Aerosizer; assay type: physicochemical; settings: MMAD
Description: (§1) DHE particle were produced by the SEDS super critical fluid process as described by Palakadoty et al. (US Application 20030109421). The DHE particulate powder produced was assayed by HPLC to determine purity and the mass mean aerodynamic diameter was determined using an Aerosizer instrument under standard operating conditions known in the art. […] The DHE particulate powder was subject to standard accelerated aging conditions of: (i) 3 months at 40 degrees Celsius and 75% relative humidity; and (ii) 25 degrees Celsius and 60% relative humidity. The DHE particles were placed in a tightly sealed dark glass container and placed in the appropriate incubation ovens for the 3 month period. At the end of the three month period, purity and particle size were again assessed as discussed above.

[3] = Powder stability with accelerated environmental aging, HPLC assay; assay type: physicochemical
Description: as §1

[4] = Pharmacokinetics of DHE in dog serum after DPI inhalation vs intravenous bolus; assay type: in vivo, dogs; settings: for Tmax: dog serum, inhalation 1 mg DPI
Description: In this study, dogs were administered the DHE particles via the DPI format (total dose 1 mg) and by intravenous bolus (total dose 0.5 mg) and DHE levels were measured in dog serum at defined intervals.

Structure (SMILES)	bioavailability, administered dose reaching the systemic circulation ([1]; in vivo)	Particle Size (microns by Aerosizer) ([2]; 3 Months @ 25 C./60% RH)	Particle Size (microns by Aerosizer) ([2]; 3 Months @ 40 C./75% RH)	Particle Size (microns by Aerosizer) ([2]; Initial, on production)	HPLC Assay (%) ([3]; 3 Months @ 25 C./60% RH, sealed dark glass container)	HPLC Assay (%) ([3]; 3 Months @ 40 C./75% RH, sealed dark glass container)	HPLC Assay (%) ([3]; Initial, on production)	Tmax ([4]; individual dogs)	blood levels of DHE compared to intravenous delivery ([4]; dog, DPI 1 mg vs iv bolus 0.5 mg, FIG. 1)	time to measurable levels of DHE in the blood after inhalation ([4]; dog, DPI 1 mg, FIG. 1)	bioavailability ([4]; dog, in vivo, dog, inhalation 1.0 mg vs iv bolus 0.5 mg, n=3, read-out: F (bioavailability) Average (%))	Tmax ([4]; dog, in vivo, inhaled or intranasal, 1 mg, individual dogs, read-out: Tmax (converted))	Tmax ([4]; dog, in vivo, inhaled or intranasal, 1 mg, n=3, read-out: Tmax Average (converted))	F (bioavailability) (%) ([4]; dog, inhalation 1.0 mg vs iv bolus 0.5 mg, individual dogs)	bioavailability ([1]; pulmonary delivery)
CN1C[C@H](C(=O)N[C@]2(C)O[C@@]3(O)[C@@H]4CCCN4C(=O)[C@H](Cc4ccccc4)N3C2=O)C[C@@H]2c3cccc4[nH]cc(c34)C[C@H]21 [DHE, dihydroergotamine]	2-10%	1.044 microns	1.091 microns	1.131 microns	101.0%	102.0%	98.3%	10 min	maintained at higher levels over an extended period of time	≤ 30 s	52%	5 min	6.7 min	27% and 49% and 80%	–
CN1C[C@H](C(=O)N[C@]2(C)O[C@@]3(O)[C@@H]4CCCN4C(=O)[C@H](Cc4ccccc4)N3C2=O)C=C2c3cccc4[nH]cc(c34)C[C@H]21 [ergotamine tartrate]	–	–	–	–	–	–	–	–	–	–	–	–	–	–	up to 92%
